The values below come from patent publication US20100233093A1, “Magnetic resonance imaging contrast agent with paramagnetic-inositol phosphates complexes” (GACHON UNIVERSITY OF MEDICINE & SCIENCE INDUSTRY-ACADEMIC …, priority 2009, published 2010).

A short description of data set [1]: Stability constant (K) from thermodynamic parameters of ITC analysis. It counts as physicochemical. Conditions: calculated from ΔG of ITC analysis. The text has this: A stability constant (formation constant, binding constant) is an equilibrium constant for the formation of a complex in solution. It is a measure of the strength of the interaction between the reagents that come together to form the complex. The thermodynamics of metal ion complex formation provides much significant information. The chelate effect, below, is best explained in terms of thermodynamics. An equilibrium constant is related to the standard Gibbs free energy change for the reaction.

The nature of data set [2]: ITC analysis of Gd^3+ binding to EDTA. Conditions: higher affinity than EDTA. A general note: Isothermal titration calorimetry measures the heat released or taken up as one component is titrated into another.
Data set [3] in a line: ITC analysis of Ca^2+ binding to phytate. Conditions: Ca^2+ stronger than Mg^2+.

Where “and” joins values, the source holds several entries; their conditions need not be identical. Equal entries are not always repeated.

On to `O=C([O-])CN1CCN(CC(=O)[O-])CCN(CC(=O)O)CCN(CC(=O)[O-])CC1.[Gd+3]` [Gd-DOTA], for which, in data set [1], the “Stability Constant (K)” value is 1.3e+29 M⁻¹. For `O=C([O-])CN(CCN(CC(=O)[O-])CC(=O)O)CCN(CC(=O)[O-])CC(=O)O.[Gd+3]` [Gd-DTPA], the “Stability Constant (K)” value in data set [1] is 1.2e+28 M⁻¹. Same read-out and setting: for `O=C([O-])CN(CCN(CC(=O)[O-])CC(=O)[O-])CC(=O)[O-].[Gd+3]` [Gd-EDTA] the value was 4.4e+29 M⁻¹. For the compound `O=P(O)(O)OC1C(OP(=O)(O)O)C(OP(=O)(O)O)C(OP(=O)(O)O)C(OP(=O)(O)O)C1OP(=O)(O)O` (centres unmarked) [phytate], in data set [2], the “affinity for Gd^3+ relative to EDTA” value was 10 fold and 10- to 100 fold. Also, the “binding affinity for Ca^2+ relative to Mg^2+” value in data set [3] is listed as 100 fold.
